Data published in patent US20110318393A1, “Substituted Pyrazole Compounds” (MIIKANA THERAPEUTICS, INC., priority 2008, published 2011).

Legend:
Assay type in all cases: biochemical
[1] = molecular target: T1, recombinant Aurora A (Homo sapiens, UniProt O14965); test: Aurora A (Aurora 2) inhibition assay, Z'-Lyte kinase assay; conditions: ATP 10 μM, 1 h; less than or equal to 100 nM
T1 construct: purchased Upstate, Lake Placid, N.Y
T1 sequence (O14965 1-403): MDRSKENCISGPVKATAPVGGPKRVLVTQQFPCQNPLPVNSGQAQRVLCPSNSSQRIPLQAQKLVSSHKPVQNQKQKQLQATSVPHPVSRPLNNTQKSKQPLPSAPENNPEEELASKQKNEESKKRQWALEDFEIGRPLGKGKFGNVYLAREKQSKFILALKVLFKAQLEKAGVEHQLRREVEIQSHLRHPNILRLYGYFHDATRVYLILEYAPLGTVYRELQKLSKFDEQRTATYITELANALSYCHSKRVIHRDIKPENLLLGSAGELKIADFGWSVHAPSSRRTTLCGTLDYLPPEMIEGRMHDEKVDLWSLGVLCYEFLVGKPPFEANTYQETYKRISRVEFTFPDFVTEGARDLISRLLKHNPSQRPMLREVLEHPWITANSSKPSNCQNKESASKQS
Description: Compounds were tested for their potency against recombinant Aurora A (Upstate, Lake Placid, N.Y.) using the PanVera Z′-Lyte kinase assay kit-Ser/Thr 1 peptide (Invitrogen, Carlsbad, Calif.). Assays were carried out in kinase assay buffer (50 mM HEPES, pH 7.5, 10 mM MgCl2, 5 mM EGTA, 0.05% Brij-35, 2 mM DTT). Test compounds were initially dissolved in DMSO at 100× the highest tested concentration, then serially diluted to 4× test concentrations in kinase assay buffer. Next, Aurora A (final concentration 200-500 ng/mL), Z′-Lyte Ser/Thr 1 peptide (final concentration 2 μM) and ATP (final concentration 10 μM) were added according to the manufacturer's instructions. Assays were carried out in half-area 96-well white polystyrene assay plates (Corning, Corning, N.Y.) in a final volume of 20 μl. The reaction was allowed to proceed for 1 h at room temperature in the dark, at which point the development reagent and stop reagent were added according to the manufacturer's instructions. Coumarin (Ex. 400 nm, Em. 465 nm) and fluorescein (Ex. 400 nm, Em. 565 nm) fluorescence values were measured on a SpectraFluor Plus plate reader (Tecan, Durham, N.C.). The emission ratio (coumarin/fluorescein) was determined and used to calculate the percent phosphorylation for each well. Wells containing substrate but no kinase and wells containing a phosphopeptide control were used to set 0% and 100% phosphorylation values, respectively. Typically 20-40% of the substrate was phosphorylated in wells without inhibitor. Dose-response curves of relative Aurora A activity vs. inhibitor concentration were plotted with Grafit (Erithacus Software, Horley, Surrey, UK).

[2] = molecular target: T2, N-terminal GST-tagged recombinant human Flt3, residues 564-end (Homo sapiens, UniProt P36888); test: Flt3 kinase inhibition assay (33P-ATP filter assay); conditions: 40 minutes, room temperature; less than or equal to 100 nM
T2 construct: recombinant human Flt3, residues 564-end; GST (N); purchased Upstate USA Inc, Charlottesville, Va
T2 sequence (P36888 564-993 limits assumed): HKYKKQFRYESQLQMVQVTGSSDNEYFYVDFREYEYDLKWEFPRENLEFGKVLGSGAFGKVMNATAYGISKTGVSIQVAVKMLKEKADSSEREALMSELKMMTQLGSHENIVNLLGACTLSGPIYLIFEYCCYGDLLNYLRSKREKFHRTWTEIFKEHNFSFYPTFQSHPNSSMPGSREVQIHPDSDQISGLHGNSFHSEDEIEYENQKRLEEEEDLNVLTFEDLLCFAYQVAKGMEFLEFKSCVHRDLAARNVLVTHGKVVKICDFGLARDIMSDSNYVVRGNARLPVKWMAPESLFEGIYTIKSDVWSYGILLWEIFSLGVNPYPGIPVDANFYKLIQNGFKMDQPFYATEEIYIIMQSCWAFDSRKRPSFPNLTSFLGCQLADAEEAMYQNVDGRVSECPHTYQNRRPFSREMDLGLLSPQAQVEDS
Description: (§1) Compounds were assayed for Flt3 kinase inhibitory activity using N-terminal GST-tagged recombinant human Flt3, residues 564-end (Upstate USA Inc, 706 Forest Street, Charlottesville, Va.). Serial dilutions of compound were assayed in a final reaction volume of 25 μL by incubating a solution of the above Flt3 kinase (5-10 mU), 8 mM MOPS (3-(N-morpholino)propanesulfonic acid) pH 7.0, 0.2 mM EDTA (ethylenediamine tetracetic acid), 50 μM amino acid sequence EAIYAAPFAKKK (Upstate USA Inc, 706 Forest Street, Charlottesville, Va.), and 10 mM magnesium acetate and [γ-^33P-ATP] (specific activity of about 500 cpm/pmol, concentration as required). The reaction was initiated by the addition of the magnesium acetate and [γ-^33P-ATP] mixture. After incubation for 40 minutes at room temperature, the reaction was stopped by the addition of 5 μL of a 3% phosphoric acid solution. A 10 μL aliquote of the reaction was then spotted onto a P30 filtermat (PerkinElmer, Wellesley, Mass.) and washed three times for five minutes in 75 mM phosphoric acid and once in methanol prior to drying and scintillation counting. Inhibition of Flt3 activity was determined by comparison to assays that contained no inhibitor.

[3] = molecular target: T3, N-terminal His-tagged human Src (Homo sapiens, UniProt P12931); test: Src kinase inhibition assay (33P-ATP filter assay); conditions: 40 minutes, room temperature; less than or equal to 100 nM
T3 construct: His (N); purchased Upstate USA Inc, Charlottesville, Va
Description: Compounds were assayed for Src kinase inhibitory activity using N-terminal His-tagged human Src (Upstate USA Inc, 706 Forest Street, Charlottesville, Va.). Serial dilutions of compound were assayed in a final reaction volume of 25 μL by incubating a solution of the above Src kinase (5-10 mU), 8 mM MOPS (3-(N-morpholino)propanesulfonic acid) pH 7.0, 0.2 mM EDTA (ethylenediamine tetracetic acid), 250 μM amino acid sequence KVEKIGEGTYGVVYK (Upstate USA Inc, 706 Forest Street, Charlottesville, Va.), and 10 mM magnesium acetate and [γ-^33P-ATP] (specific activity of about 500 cpm/pmol, concentration as required). The reaction was initiated by the addition of the magnesium acetate and [γ-^33P-ATP] mixture. After incubation for 40 minutes at room temperature, the reaction was stopped by the addition of 5 μL of a 3% phosphoric acid solution. A 10 μL aliquote of the reaction was then spotted onto a P30 filtermat (PerkinElmer, Wellesley, Mass.) and washed three times for five minutes in 75 mM phosphoric acid and once in methanol prior to drying and scintillation counting. Inhibition of Src activity was determined by comparison to assays that contained no inhibitor.

[4] = molecular target: T4, N-terminal His6-tagged recombinant human KDR, residues 790-end (Homo sapiens, UniProt P35968); test: KDR kinase inhibition assay (33P-ATP filter assay); conditions: 40 minutes, room temperature; less than or equal to 100 nM
T4 construct: recombinant human KDR, residues 790-end; His6 (N); purchased Upstate USA Inc, Charlottesville, Va
Description: as §1, with “KDR” for “Flt3”, “His6-tagged” for “GST-tagged”, “KDR,” for “Flt3,”, “790-end” for “564-end”, “0.33 mg/mL myelin basic protein” for “50 μM amino acid sequence EAIYAAPFAKKK”

T3 sequence (P12931 whole entry): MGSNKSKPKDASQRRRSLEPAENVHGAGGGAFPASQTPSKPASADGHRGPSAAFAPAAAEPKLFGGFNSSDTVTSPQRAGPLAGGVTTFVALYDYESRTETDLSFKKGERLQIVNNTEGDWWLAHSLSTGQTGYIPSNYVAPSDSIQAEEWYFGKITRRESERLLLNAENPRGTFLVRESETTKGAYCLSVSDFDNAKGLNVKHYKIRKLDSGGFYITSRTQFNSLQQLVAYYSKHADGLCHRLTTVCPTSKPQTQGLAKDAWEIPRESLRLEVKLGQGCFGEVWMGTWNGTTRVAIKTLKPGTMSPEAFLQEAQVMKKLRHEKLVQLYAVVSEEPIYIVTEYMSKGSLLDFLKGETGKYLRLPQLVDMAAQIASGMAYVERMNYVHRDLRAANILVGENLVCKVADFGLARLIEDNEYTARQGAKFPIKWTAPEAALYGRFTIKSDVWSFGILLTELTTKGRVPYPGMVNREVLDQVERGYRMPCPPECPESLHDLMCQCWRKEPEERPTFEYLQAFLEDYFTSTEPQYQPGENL
T4 sequence (P35968 790-1356 limits assumed): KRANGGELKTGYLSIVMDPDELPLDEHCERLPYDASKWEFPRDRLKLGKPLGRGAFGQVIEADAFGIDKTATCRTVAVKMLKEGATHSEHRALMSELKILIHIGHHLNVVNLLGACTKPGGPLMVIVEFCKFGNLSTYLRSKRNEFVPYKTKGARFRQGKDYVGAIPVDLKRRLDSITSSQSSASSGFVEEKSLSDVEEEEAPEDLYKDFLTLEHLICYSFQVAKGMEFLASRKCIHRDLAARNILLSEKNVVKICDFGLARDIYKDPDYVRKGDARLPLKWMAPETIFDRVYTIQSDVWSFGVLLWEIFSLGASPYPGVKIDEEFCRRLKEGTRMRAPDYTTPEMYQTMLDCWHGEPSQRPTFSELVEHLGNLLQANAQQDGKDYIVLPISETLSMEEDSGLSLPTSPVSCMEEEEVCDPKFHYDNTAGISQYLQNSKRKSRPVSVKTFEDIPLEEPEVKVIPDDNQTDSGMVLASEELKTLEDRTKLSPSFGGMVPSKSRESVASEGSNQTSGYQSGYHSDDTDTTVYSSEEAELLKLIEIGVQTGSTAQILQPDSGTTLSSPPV

SMILES | IC50 [1] [nM] | IC50 [2] [nM] | IC50 [3] [nM] | IC50 [4] [nM]
Cc1cc(Nc2cc(N3CCN(C4CCN(C)CC4)CC3)nc(/C=C/c3ccccc3)n2)n[nH]1 [Compound 4, (E)-N-(5-methyl-1H-pyrazol-3-yl)-6-(4-(1-methylpiperidin-4-yl)piperazin-1-yl)-2-styrylpyrimidin-4-amine] | ≤ 100 | ≤ 100 | ≤ 100 | ≤ 100
Cc1cc(Nc2cc(N3CCC(N4CCCC4)CC3)nc(/C=C/c3ccccc3)n2)n[nH]1 [Compound 2, (E)-N-(5-methyl-1H-pyrazol-3-yl)-6-(4-(pyrrolidin-1-yl)piperidin-1-yl)-2-styrylpyrimidin-4-amine] | ≤ 100 | ≤ 100 | ≤ 100 | ≤ 100
Cc1cc(Nc2cc(N3CCN(C4CCCCC4)CC3)nc(/C=C/c3ccccc3)n2)n[nH]1 [Compound 9, (E)-6-(4-cyclohexylpiperazin-1-yl)-N-(5-methyl-1H-pyrazol-3-yl)-2-styrylpyrimidin-4-amine] | ≤ 100 | ≤ 100 | ≤ 100 | ≤ 100
COC1CCN(C2CN(c3cc(Nc4cc(C)[nH]n4)nc(/C=C/c4ccccc4)n3)C2)CC1 [Compound 1, (E)-6-(3-(4-methoxypiperidin-1-yl)azetidin-1-yl)-N-(5-methyl-1H-pyrazol-3-yl)-2-styrylpyrimidin-4-amine] | ≤ 100 | ≤ 100 | ≤ 100 | ≤ 100
Cc1cc(Nc2cc(N3CCC(O)(c4ccc(Cl)cc4)CC3)nc(/C=C/c3ccccc3)n2)n[nH]1 [Compound 11, (E)-4-(4-chlorophenyl)-1-(6-(5-methyl-1H-pyrazol-3-ylamino)-2-styrylpyrimidin-4-yl)piperidin-4-ol] |  | ≤ 100 |  | 
Cc1cc(Nc2cc(N3CCN(c4ccccc4)CC3)nc(/C=C/c3ccccc3)n2)n[nH]1 [Compound 8, (E)-N-(5-methyl-1H-pyrazol-3-yl)-6-(4-phenylpiperazin-1-yl)-2-styrylpyrimidin-4-amine] |  | ≤ 100 |  | 
Cc1cc(Nc2cc(N3CCN(c4ccc(C#N)cc4)CC3)nc(/C=C/c3ccccc3)n2)n[nH]1 [Compound 10, (E)-4-(4-(6-(5-methyl-1H-pyrazol-3-ylamino)-2-styrylpyrimidin-4-yl)piperazin-1-yl)benzonitrile] |  | ≤ 100 |  | 

Continued, values first:

IC50 [1] [nM] | IC50 [2] [nM] | IC50 [3] [nM] | IC50 [4] [nM] | SMILES
≤ 100 | ≤ 100 | ≤ 100 | ≤ 100 | Cc1cc(Nc2cc(N3CCC(CN4CCCCC4)CC3)nc(/C=C/c3ccccc3)n2)n[nH]1 [Compound 30]
≤ 100 | ≤ 100 | ≤ 100 | ≤ 100 | Cc1cc(Nc2cc(N3CC(N4CCC(O)CC4)C3)nc(/C=C/c3ccccc3)n2)n[nH]1 [Compound 21, (E)-1-(1-(6-(5-methyl-1H-pyrazol-3-ylamino)-2-styrylpyrimidin-4-yl)azetidin-3-yl)piperidin-4-ol]
≤ 100 | ≤ 100 |  |  | Cc1cc(Nc2cc(N3CCC(O)(Cc4ccccc4)CC3)nc(/C=C/c3ccccc3)n2)n[nH]1 [Compound 16]
 | ≤ 100 |  | ≤ 100 | Cc1cc(Nc2cc(N3CCN(c4ccc([N+](=O)[O-])cc4)CC3)nc(/C=C/c3ccccc3)n2)n[nH]1 [Compound 12, (E)-N-(5-methyl-1H-pyrazol-3-yl)-6-(4-(4-nitrophenyl)piperazin-1-yl)-2-styrylpyrimidin-4-amine]
≤ 100 | ≤ 100 | ≤ 100 | ≤ 100 | Cc1cc(Nc2cc(N3CCC(N4CCCCC4)C3)nc(/C=C/c3ccccc3)n2)n[nH]1 (stereo not drawn) [Compound 23, (E)-N-(5-methyl-1H-pyrazol-3-yl)-6-(3-(piperidin-1-yl)pyrrolidin-1-yl)-2-styrylpyrimidin-4-amine]
≤ 100 | ≤ 100 |  |  | Cc1cc(Nc2cc(N3CCN(c4ccccn4)CC3)nc(/C=C/c3ccccc3)n2)n[nH]1 [Compound 14, (E)-N-(5-methyl-1H-pyrazol-3-yl)-6-(4-(pyridin-2-yl)piperazin-1-yl)-2-styrylpyrimidin-4-amine]
≤ 100 | ≤ 100 | ≤ 100 | ≤ 100 | Cc1cc(Nc2cc(N3CC(N4CCOCC4)C3)nc(/C=C/c3ccccc3)n2)n[nH]1 [Compound 15, (E)-N-(5-methyl-1H-pyrazol-3-yl)-6-(3-morpholinoazetidin-1-yl)-2-styrylpyrimidin-4-amine]
≤ 100 | ≤ 100 | ≤ 100 | ≤ 100 | Cc1cc(Nc2cc(N3CCN(CC4CCCO4)CC3)nc(/C=C/c3ccccc3)n2)n[nH]1 (stereo not drawn) [Compound 24, (E)-N-(5-methyl-1H-pyrazol-3-yl)-2-styryl-6-(4-((tetrahydrofuran-2-yl)methyl)piperazin-1-yl)pyrimidin-4-amine]
